In the supplement of paper PMC10307832:

Assays:
Test in all cases: relative viability (nuclei count vs DMSO), 5 days (fraction); higher = more cells survive
ABC-1 = test system: ABC-1
Method in brief: (§1)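 A single step with final 0.05% Triton X-100, 1% formaldehyde and 1 ug/ml Hoechst fixed the cells and stained nuclei 5 days after treatment. Lung cancer cell lines in 1536-well plates had been treated by pin tool the day after seeding with one drug alone or a fixed anchor-drug dose plus five library-drug doses (not always all listed) in √10 steps, and nuclei were counted on 4× images. Relative viability is the ratio of nuclei in treated wells to nuclei in vehicle wells, taken as the median of duplicate plates.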

BEN = test system: BEN
Method in brief: as §1

EPLC-272H = test system: EPLC-272H
Method in brief: as §1

HCC-827 = test system: HCC-827
Method in brief: as §1

HOP-62 = test system: HOP-62
Method in brief: as §1

LU99A = test system: LU99A
Method in brief: as §1

NCI-H1355 = test system: NCI-H1355
Method in brief: as §1

NCI-H1666 = test system: NCI-H1666
Method in brief: as §1

NCI-H1792 = test system: NCI-H1792
Method in brief: as §1

NCI-H1975 = test system: NCI-H1975
Method in brief: as §1

NCI-H2170 = test system: NCI-H2170
Method in brief: as §1

NCI-H23 = test system: NCI-H23
Method in brief: as §1

O=C(O)CCCCC(CCSCc1ccccc1)SCc1ccccc1 (configuration not stated) [CPI-613] + CCNC(=O)c1noc(-c2cc(C(C)C)c(O)cc2O)c1-c1ccc(CN2CCOCC2)cc1 [Luminespib] (partner 0.01 µM)
relative viability (ABC-1; first compound 5 µM): 0.629 | relative viability (ABC-1; first compound 50 µM): 0.776 | relative viability (ABC-1; first compound 158.11 µM): 0.185 | relative viability (ABC-1; first compound 500 µM): 0.183 | relative viability (BEN; first compound 5 µM): 0.619 | relative viability (BEN; first compound 15.81 µM): 0.362 | relative viability (BEN; first compound 50 µM): 0.484 | relative viability (BEN; first compound 158.11 µM): 0.292 | relative viability (BEN; first compound 500 µM): 0.149 | relative viability (EPLC-272H; first compound 5 µM): 0.338 | relative viability (EPLC-272H; first compound 15.81 µM): 0.32 | relative viability (EPLC-272H; first compound 50 µM): 0.575 | relative viability (EPLC-272H; first compound 158.11 µM): 0.0624 | relative viability (EPLC-272H; first compound 500 µM): 0.0121 | relative viability (HCC-827; first compound 5 µM): 0.416 | relative viability (HCC-827; first compound 15.81 µM): 0.615 | relative viability (HCC-827; first compound 50 µM): 0.774 | relative viability (HCC-827; first compound 158.11 µM): 0.633 | relative viability (HCC-827; first compound 500 µM): 0.329 | relative viability (HOP-62; first compound 5 µM): 0.882 | relative viability (HOP-62; first compound 15.81 µM): 0.944 | relative viability (HOP-62; first compound 50 µM): 0.894 | relative viability (HOP-62; first compound 158.11 µM): 0.627 | relative viability (HOP-62; first compound 500 µM): 0.607 | relative viability (LU99A; first compound 5 µM): 0.296 | relative viability (LU99A; first compound 15.81 µM): 0.222 | relative viability (LU99A; first compound 50 µM): 0.243 | relative viability (LU99A; first compound 158.11 µM): 0.159 | relative viability (LU99A; first compound 500 µM): 0.115 | relative viability (NCI-H1355; first compound 5 µM): 0.692 | relative viability (NCI-H1355; first compound 15.81 µM): 0.701 | relative viability (NCI-H1355; first compound 50 µM): 0.691 | relative viability (NCI-H1355; first compound 158.11 µM): 0.25 | relative viability (NCI-H1355; first compound 500 µM): 0.35 | relative viability (NCI-H1666; first compound 5 µM): 0.992 | relative viability (NCI-H1666; first compound 15.81 µM): 1.01 | relative viability (NCI-H1666; first compound 50 µM): 1.12 | relative viability (NCI-H1666; first compound 158.11 µM): 0.223 | relative viability (NCI-H1666; first compound 500 µM): 0.131 | relative viability (NCI-H1792; first compound 5 µM): 0.512 | relative viability (NCI-H1792; first compound 15.81 µM): 0.396 | relative viability (NCI-H1792; first compound 50 µM): 0.375 | relative viability (NCI-H1792; first compound 158.11 µM): 0.353 | relative viability (NCI-H1792; first compound 500 µM): 0.39 | relative viability (NCI-H1975; first compound 5 µM): 0.173 | relative viability (NCI-H1975; first compound 15.81 µM): 0.171 | relative viability (NCI-H1975; first compound 50 µM): 0.194 | relative viability (NCI-H1975; first compound 158.11 µM): 0.141 | relative viability (NCI-H1975; first compound 500 µM): 0.28 | relative viability (NCI-H2170; first compound 5 µM): 0.754 | relative viability (NCI-H2170; first compound 15.81 µM): 0.573 | relative viability (NCI-H2170; first compound 50 µM): 0.524 | relative viability (NCI-H2170; first compound 158.11 µM): 0.196 | relative viability (NCI-H2170; first compound 500 µM): 0.0909 | relative viability (NCI-H23; first compound 5 µM): 0.224 | relative viability (NCI-H23; first compound 15.81 µM): 0.222 | relative viability (NCI-H23; first compound 50 µM): 0.234
